Test results from patent US20240041042A1, “1-(PYRIDYL)-5-AZINYLPYRAZOLE DERIVATIVES, AND THEIR USE FOR CONTROL OF UNDESIRED PLANT GROWTH” (Bayer Aktiengesellschaft, priority 2020, published 2024).
Where two headings read alike, the source gives them in different places.

Assays:
Assay type in all cases: in vivo
[1] = system: Digitaria sanguinalis (DIGSA); experiment: Post-emergence herbicidal action against DIGSA; details: 80 g/ha, visual rating about 3 weeks after treatment
In short: (§1)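 Rates were 320 g/ha or below, applied as aqueous WP/EC spray with 0.5% additive (600 l/ha) onto one-leaf-stage plants. About 3 weeks later in the greenhouse, damage was scored visually against untreated plants on a 0–100% scale, where 100% means plants died.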

[2] = system: Abutilon theophrasti (ABUTH); experiment: Post-emergence herbicidal action against ABUTH; details: 80 g/ha, visual rating about 3 weeks after treatment vs untreated controls (100% = plants have died, 0% = like control plants)
In short: as §1

[3] = system: Digitaria sanguinalis (DIGSA); experiment: Pre-emergence herbicidal action against DIGSA
From the text: Seeds of monocotyledonous and dicotyledonous weed plants and crop plants are placed in plastic or organic planting pots and covered with soil. The compounds of the invention, formulated in the form of wettable powders (WP) or as emulsion concentrates (EC), are then applied to the surface of the covering soil as aqueous suspension or emulsion with addition of 0.5% additive at a water application rate equivalent to 600 l/ha. After the treatment, the pots are placed in a greenhouse and kept under good growth conditions for the trial plants. After about 3 weeks, the effect of the preparations is scored visually in comparison with untreated controls as percentages. For example, 100% activity=the plants have died, 0% activity=like control plants.
Tables A1 to A13 below show the effects of selected compounds of the general formula (I) on various harmful plants and at an application rate corresponding to 320 g/ha or lower, which were obtained by the experimental procedure mentioned above. The appendices “a”, “b” and “c” give differentiation by dosage used with otherwise the same harmful plants tested.

[4] = system: Pharbitis purpurea (PHBPU); experiment: Post-emergence herbicidal action against PHBPU; details: dosage 80 g/ha
In short: as §1

[5] = system: Polygonum convolvulus (POLCO); experiment: Post-emergence herbicidal action against POLCO; details: dosage 80 g/ha
In short: as §1

[6] = system: Avena fatua (AVEFA); experiment: Pre-emergence herbicidal action against AVEFA; details: 320 g/ha, visual scoring after about 3 weeks vs untreated controls
In short: (§2)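 Application rates ran to 320 g/ha or lower, with several dosages tested on the same weeds. The compound, as wettable powder or emulsion concentrate, is sprayed pre-emergence onto soil over sown seeds; greenhouse growth follows, and effect is rated visually after roughly 3 weeks.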

[7] = system: Amaranthus retroflexus (AMARE); experiment: Post-emergence herbicidal action against AMARE; details: 80 g/ha, visual rating about 3 weeks after treatment vs untreated controls (100% = plants have died, 0% = like control plants)
In short: as §1

[8] = system: Pharbitis purpurea (PHBPU); experiment: Pre-emergence herbicidal action against PHBPU; details: dosage 320 g/ha
In short: as §2

[9] = system: Oryza sativa (ORYSA); details: crop plant compatibility
In short: (§3)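 Percent effect on the crop was judged by eye against untreated controls, where 0% means like control and 100% means dead plants. Plants had been sprayed post-emergence at the one-leaf stage and then kept under optimum greenhouse conditions for about 3 weeks.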

[10] = system: Zea mays (ZEAMX)
In short: as §3

[11] = system: Matricaria inodora (MATIN); experiment: Pre-emergence herbicidal action against MATIN; details: dosage 320 g/ha
In short: as §2

[12] = system: Alopecurus myosuroides (ALOMY); experiment: Post-emergence herbicidal action against ALOMY; details: 80 g/ha, visual rating about 3 weeks after treatment vs untreated controls (100% = plants have died, 0% = like control plants)
In short: as §1

[13] = system: Polygonum convolvulus (POLCO); experiment: Pre-emergence herbicidal action against POLCO
In short: as §2

[14] = system: Amaranthus retroflexus (AMARE); experiment: Pre-emergence herbicidal action against AMARE; details: visual scoring after about 3 weeks vs untreated controls
In short: as §2

[15] = system: Lolium rigidum (LOLRI); experiment: Pre-emergence herbicidal action against LOLRI
In short: as §2

[16] = system: Verconica persica (VERPE); experiment: Pre-emergence herbicidal action against VERPE
In short: as §2

[17] = system: Echinochloa crus-galli (ECHCG); experiment: Pre-emergence herbicidal action against ECHCG; details: dosage 320 g/ha
In short: as §2

[18] = system: Avena fatua (AVEFA); experiment: Post-emergence herbicidal action against AVEFA; details: 80 g/ha, visual rating about 3 weeks after treatment
In short: as §1

[19] = system: Alopecurus myosuroides (ALOMY); experiment: Pre-emergence herbicidal action against ALOMY; details: scored visually after about 3 weeks, 100% = plants have died
In short: as §2

[20] = system: Viola tricolor (VIOTR); experiment: Pre-emergence herbicidal action against VIOTR
In short: as §2

[21] = system: Setaria viridis (SETVI); experiment: Pre-emergence herbicidal action against SETVI
In short: as §2

[22] = system: Viola tricolor (VIOTR); experiment: Post-emergence herbicidal action against VIOTR; details: 80 g/ha
In short: as §1

[23] = system: Verconica persica (VERPE); experiment: Post-emergence herbicidal action against VERPE; details: dosage 80 g/ha
In short: as §1

[24] = system: Setaria viridis (SETVI); experiment: Post-emergence herbicidal action against SETVI; details: dosage 80 g/ha
In short: as §1

[25] = system: Echinochloa crus-galli (ECHCG); experiment: Post-emergence herbicidal action against ECHCG; details: dosage 80 g/ha
In short: as §1

[26] = 80 g/ha, visual scoring after about 3 weeks vs untreated controls

Structure (SMILES)	Post-emergence action against DIGSA in % [1] [%]	Post-emergence action against ABUTH in % [2] [%]	Pre-emergence action against DIGSA in % [3, 26] [%]	Pre-emergence action against DIGSA in % ([3]; dosage 320 g/ha) [%]	Post-emergence action against PHBPU in % [4] [%]	Post-emergence action against POLCO in % [5] [%]	Pre-emergence action against AVEFA in % [6] [%]	Post-emergence action against AMARE in % [7] [%]	Pre-emergence action against PHBPU in % [8] [%]	Pre-emergence action against MATIN in % [11] [%]	Post-emergence action against ALOMY in % [12] [%]	Pre-emergence action against POLCO in % ([13]; dosage 80 g/ha) [%]	Pre-emergence action against POLCO in % ([13]; dosage 320 g/ha) [%]	Pre-emergence action against AMARE in % ([14]; 80 g/ha) [%]	Pre-emergence action against AMARE in % ([14]; 320 g/ha) [%]	Pre-emergence action against LOLRI in % ([15]; dosage 80 g/ha) [%]	Pre-emergence action against LOLRI in % ([15]; dosage 320 g/ha) [%]	Pre-emergence action against VERPE in % ([16]; dosage 320 g/ha) [%]	Pre-emergence action against ECHCG in % [17] [%]	Pre-emergence action against ALOMY ([19]; 80 g/ha) [%]	also measured
CCOC(=O)COc1nn(-c2ncccc2F)c(-c2ccc(F)nc2)c1C(F)(F)F [Example I-56]	90	80	100	100	80	80	100	80	90	100	90	80	90	100	100	100	100	100	100	100	Post-emergence action against ORYSA in % ([9]; 20 g/ha, effect vs untreated controls): 0%; Post-emergence action against ORYSA in % ([9]; 80 g/ha, effect in comparison to untreated controls): 0%; Post-emergence action against ZEAMX in % (crop plant compatibility) ([10]; 20 g/ha, ZEAMX, effect in comparison to untreated controls): 0%; Post-emergence action against ZEAMX in % ([10]; crop plant compatibility, 80 g/ha, effect vs untreated controls): 0%; Post-emergence action against AVEFA in % [18]: 80%; Pre-emergence action against ALOMY ([19]; 320 g/ha): 100%; Pre-emergence action against VIOTR in % ([20]; 320 g/ha, Viola tricolor): 100%; Pre-emergence action against VIOTR in % ([20]; dosage 80 g/ha): 100%; Pre-emergence action against SETVI in % ([21]; dosage 320 g/ha): 100%; Post-emergence action against VIOTR in % [22]: 80%; Post-emergence action against VERPE in % [23]: 80%
COCCOCCOC(=O)COc1nn(-c2ncccc2F)c(-c2ccc(F)nc2)c1Br [Example I-37]	90	80	100	100	80	80	90	90	90	100	90	80	90	100	100	80	100	100	100	100	Post-emergence action against SETVI in % [24]: 80%; Post-emergence action against ECHCG in % [25]: 80%; Pre-emergence action against VERPE in % ([16]; dosage 80 g/ha): 80%; Pre-emergence action against ALOMY ([19]; 320 g/ha): 100%; Pre-emergence action against VIOTR in % ([20]; 320 g/ha, Viola tricolor): 100%; Pre-emergence action against VIOTR in % ([20]; dosage 80 g/ha): 100%; Pre-emergence action against SETVI in % ([21]; dosage 80 g/ha): 100%; Pre-emergence action against SETVI in % ([21]; dosage 320 g/ha): 100%; Post-emergence action against VERPE in % [23]: 80%
